Assay results reported in patent publication US20190256929A1, “PHARMACODYNAMIC BIOMARKERS FOR PERSONALIZED CANCER CARE USING EPIGENETIC MODIFYING AGENTS” (ORYZON GENOMICS, S.A., priority 2016, published 2019).

Assays:
[1] = system: patient derived xenograft (PDX) small cell lung cancer models, ex vivo cultures; assay: qRT-PCR of PD markers Notch1 and ASCL1 in ex vivo cultures of SCLC patient derived xenograft (PDX) models; assay type: cell-based, human; details: 1 nM, 120 hours
Description: To confirm the results obtained for the panel for small cell lung cancer cell lines, changes in PD markers Notch1 and ASCL1 were evaluated in a panel of patient derived xenograft (PDX) small cell lung cancer models. The initiation and characterization of PDX models LX48, LX108, LX110, LX33 have been described previously (Hann, C. L., et al. 2008, Cancer Research. 68, 2321-2328; Poirier et al. (2013). J. Natl. Cancer Inst. 105, 1059-1065; Leong et al. PLoS One. 2014; 9:e106862). PDX models, FHSC04 and FHSC14 were generated from blood samples obtained from patients with extensive-stage SCLC, following the methodology described by the Dive lab (Hodgkinson et al. 2014 Nat Med August 20(8), 897-903). Ex vivo cultures were treated with 1 nM (trans)-N1-((1R,2S)-2-Phenylcyclopropyl)cyclohexane-1,4-diamine in 96 well plates (10,000 cells/well) for 120 hours. RNA was extracted in TRIzol (Invitrogen) and isolated according to the manufacturer's protocol. cDNA was generated using the iScript synthesis kit (Bio-Rad) according to the manufacturer's protocol. qPCR experiments were run on a Biorad qPCR instrument (CFX384). Data were normalized to GAPDH. FIG. 12 contains the results of the qRT-PCR using the following primers.

SCLC 510A xenografts = assay: RNA-seq PD gene change in H510A SCLC xenograft mouse model; assay type: in vivo, mice; details: for ASCL1 Log2FC / GRP Log2FC / NOTCH1 Log2FC: vs vehicle
Description: Female athymic nude mice, approximately 7-8-week old animals, were injected with 5 million H510A cells per 50 μL PBS and 50 μL Matrigel (BD Bioscience) into the right flank of each animal. After tumor growth reached 200-300 mm3, animals were distributed in three homogeneous groups with similar mean tumor volume and SD. Animals were treated with vehicle, 20 μg/Kg and 40 μg/Kg of (trans)-N1-((1R,2S)-2-phenylcyclopropyl)cyclohexane-1,4-diamine for 3 weeks according to the 5 days on/2 days off schedule.
Mice were sacrificed at day 35 at 1, 6 and 24 hours post last injection. Blood was extracted in Microvette® (Sarstedt) tubes, centrifuged on a bench-top centrifuge at 2000 rpm for 15 min at 4 C. Supernatant was stored at −80° C. Tumors were removed and divided in 3 parts: ⅓ was immersed in RNA-Later and snap frozen for subsequent analysis. Frozen material was stored at −80° C. before shipment.
Whole transcriptomic RNA sequencing procedure is identical to that as described in Example 1. Raw RNASeq reads were aligned to the mouse and the human transcriptome using GSNAP and were then analyzed. Reads mapped to both organisms were filtered out and only reads that were uniquely aligned to human or mouse were used to profile the respective genes. The log 2 fold change of three candidate PD markers between (trans)-N1-((1R,2S)-2-phenylcyclopropyl)cyclohexane-1,4-diamine treated and vehicle treated samples were calculated using DESeq2 package (Love et al.).

[2] = 20 μg/kg, 1 h post last injection
[3] = 20 μg/kg, 6 h post last injection
[4] = 20 μg/kg, 24 h post last injection
[5] = 40 μg/kg, 1 h post last injection
[6] = 40 μg/kg, 6 h post last injection
[7] = 40 μg/kg, 24 h post last injection

Question: What does the source list for `N[C@H]1CC[C@H](N[C@@H]2C[C@H]2c2ccccc2)CC1` [RG6016, (trans)-N1-((1R,2S)-2-phenylcyclopropyl)cyclohexane-1,4-diamine]?
Answer: Regulation of ASCL1 (FIG. 12) [1]: down; Regulation of NOTCH1 (FIG. 12) [1]: up; ASCL1 Log2FC (SCLC 510A xenografts; [2]): −0.525; GRP Log2FC (SCLC 510A xenografts; [2]): −1.607; NOTCH1 Log2FC (SCLC 510A xenografts; [2]): 1.947; ASCL1 Log2FC (SCLC 510A xenografts; [3]): −0.545; GRP Log2FC (SCLC 510A xenografts; [3]): −0.794; NOTCH1 Log2FC (SCLC 510A xenografts; [3]): 1.388; ASCL1 Log2FC (SCLC 510A xenografts; [4]): −0.472; GRP Log2FC (SCLC 510A xenografts; [4]): −1.205; NOTCH1 Log2FC (SCLC 510A xenografts; [4]): 1.679; ASCL1 Log2FC (SCLC 510A xenografts; [5]): −0.783; GRP Log2FC (SCLC 510A xenografts; [5]): −1.75; NOTCH1 Log2FC (SCLC 510A xenografts; [5]): 2.727; ASCL1 Log2FC (SCLC 510A xenografts; [6]): −0.825; GRP Log2FC (SCLC 510A xenografts; [6]): −1.421; NOTCH1 Log2FC (SCLC 510A xenografts; [6]): 2.321; ASCL1 Log2FC (SCLC 510A xenografts; [7]): −1.286; GRP Log2FC (SCLC 510A xenografts; [7]): −2.742; NOTCH1 Log2FC (SCLC 510A xenografts; [7]): 3.423; ASCL1 transcript down regulation (FIG. 9) (SCLC 510A xenografts; SCLC 510A xenografts): dose and time dependent; GRP transcript down regulation (FIG. 10) (SCLC 510A xenografts; SCLC 510A xenografts): dose and time dependent; NOTCH1 transcript up regulation (FIG. 11) (SCLC 510A xenografts; SCLC 510A xenografts): dose and time dependent
